The test system of series [1] is Huh7 cells expressing a subgenomic RNA replicon of Con1 (genotype 1b) sequence origin. In words: microbe, parasite or virus in culture. The settings on record: Hepatitis C virus.
Series [2] is described as follows: in vitro. The settings on record: human.
Where [3] appears, read: Huh-7, read-out: IC50 (uM) [SG].
Where [4] appears, read: Huh-7, read-out: Max Effect@CC30 (inhibition).

Structures are written as SMILES. Where two headings read alike, the source gives them in different places. Where only a bound is given, the exact number is not on record here.

Here are results for 32 compounds from patent US20100009970A1, “COMPOSITIONS AND METHODS FOR TREATMENT OF VIRAL DISEASES” (Combinatorx (Singapore) Pte. Ltd., priority 2008, published 2010).

Usually IC50 stands for the concentration that gives 50% inhibition. `CN[C@H]1CC[C@@H](c2ccc(Cl)c(Cl)c2)c2ccc(C(=O)NC3CC3)cc21` [(5S,8S)—N-cyclopropyl-5-(3,4-dichlorophenyl)-8-(methylamino)-5,6,7,8-tetrahydronaphthalene-2-carboxamide]: the IC50 in series [1] (setting [3]) stood at 2.75 µM. Moreover, in series [1] (setting [4]), the Emax came to 88%. In series [2] (CC50 (uM) [SG]), the CC50 turned out to be 8.87 µM.

Consider `CC(C)C1=CC[C@@H](c2ccc(Cl)c(Cl)c2)c2ccc(C(N)=O)cc21` [(S)-5-(3,4-dichlorophenyl)-8-isopropyl-5,6-dihydronaphthalene-2-carboxamide], for which the IC50 in series [1] (setting [3]) was found to be 21.5 µM. In series [2] (CC50 (uM) [SG]), the CC50 was more than 50 µM.

As to `OC1CC[C@@H](c2ccc(Cl)c(Cl)c2)c2ccccc21` (stereo partly drawn) [Alcohol Sertraline-P1, (S)-4-(3,4-dichlorophenyl)-1,2,3,4-tetrahydronaphthalen-1-ol], the IC50 in series [1] (setting [3]) is 24.5 µM. In series [1] (setting [4]), the Emax came to 89.2%. The same compound displayed a CC50 in series [2] (CC50 (uM) [SG]) of more than 50 µM.

One may read the IC90 as the concentration at which the effect reaches the 90% level. Read a high IC90 as weaker potency. For `CSc1ccc(Oc2ccc(S(N)(=O)=O)cc2CNCCO)cc1C` [Compound 1, 3-((2-hydroxyethylamino)methyl)-4-(3-methyl-4-(methylthio)phenoxy)benzenesulfonamide], in series [1] (Huh-7), the concentration for an effect of 90% (IC90) is 15 µM. Further, in series [1] (setting [3]), the IC50 came to 4.31 µM. Further, the CC50 in series [2] (CC50 (uM) [SG]) was more than 50 µM.

In series [1] (Huh-7), `CSc1ccc(Oc2ccc(S(N)(=O)=O)cc2CN(C)CCO)cc1C` [Compound 2, 3-(((2-hydroxyethyl)(methyl)amino)methyl)-4-(3-methyl-4-(methylthio)phenoxy)benzenesulfonamide] yielded a concentration for an effect of 90% (IC90) of 20.1 µM. For the same compound, the IC50 in series [1] (setting [3]) was found to be 5.58 µM. Moreover, the CC50 in series [2] (CC50 (uM) [SG]) is more than 50 µM.

`CNS(=O)(=O)c1ccc(Oc2ccc(SC)c(C)c2)c(CN(C)C)c1` [Compound 6, 3-((dimethylamino)methyl)-N-methyl-4-(3-methyl-4-(methylthio)phenoxy)benzenesulfonamide]: the 90% effect concentration (IC90) in series [1] (Huh-7) stood at 14.8 µM. In addition, the 50% inhibitory concentration (IC50) in series [1] (setting [3]) was 5.8 µM. Further, in series [1] (setting [4]), the Emax came out at 93.2%. Also, the CC50 in series [2] (CC50 (uM) [SG]) is 45.3 µM.

For the compound `CSc1ccc(Oc2ccc(C#N)cc2CN(C)C)cc1C` [Compound 7, 3-((dimethylamino)methyl)-4-(3-methyl-4-(methylthio)phenoxy)benzonitrile], the 90% effect level in series [1] (Huh-7) (IC90) was put at 11.5 µM. The IC50 in series [1] (setting [3]) stood at 6.4 µM. Besides, the Emax in series [1] (setting [4]) is 96.7%. This compound displayed a CC50 in series [2] (CC50 (uM) [SG]) of more than 50 µM.

With `CSc1ccc(Oc2ccccc2CN(C)C)cc1C` [Compound 8, N,N-dimethyl-1-(2-(3-methyl-4-(methylthio)phenoxy)phenyl)methanamine], the IC50 in series [1] (setting [3]) was 12.2 µM. The Emax in series [1] (setting [4]) worked out at 52.3%. Moreover, the CC50 in series [2] (CC50 (uM) [SG]) was 36 µM.

For `CSc1ccc(Oc2ccc(C(N)=O)cc2CN(C)C)cc1C` [Compound 10, 3-((dimethylamino)methyl)-4-(3-methyl-4-(methylthio)phenoxy)benzamide], the IC50 in series [1] (setting [3]) was determined as 26.9 µM. Also, in series [1] (setting [4]), the Emax is 80.7%. Further, in series [2] (CC50 (uM) [SG]), the CC50 was more than 50 µM.

Consider `CCCCNS(=O)(=O)c1ccc(Oc2ccc(SC)c(C)c2)c(CN(C)C)c1` [Compound 12, N-butyl-3-((dimethylamino)methyl)-4-(3-methyl-4-(methylthio)phenoxy)benzenesulfonamide], for which, in series [1] (setting [3]), the IC50 was found to be 13.4 µM. In addition, the CC50 in series [2] (CC50 (uM) [SG]) turned out to be 18.4 µM.

With `CSc1ccc(Oc2ccc(S(=O)(=O)NC3CC3)cc2CN(C)C)cc1C` [Compound 13, N-cyclopropyl-3-((dimethylamino)methyl)-4-(3-methyl-4-(methylthio)phenoxy)benzenesulfonamide], the half-inhibitory concentration (IC50) in series [1] (setting [3]) is 25.5 µM. Moreover, the CC50 in series [2] (CC50 (uM) [SG]) amounted to 41.8 µM.

Take `CSc1ccc(Oc2ccc(S(=O)(=O)NCc3ccccc3)cc2CN(C)C)cc1C` [Compound 14, N-benzyl-3-((dimethylamino)methyl)-4-(3-methyl-4-(methylthio)phenoxy)benzenesulfonamide]: in series [1] (setting [3]), the 50% inhibitory concentration (IC50) worked out at 11.4 µM. Further, the Emax in series [1] (setting [4]) was determined as 59%. The CC50 in series [2] (CC50 (uM) [SG]) was 16.9 µM.

Consider `CSc1ccc(Oc2ccc(N(C)C)cc2CN(C)C)cc1C` [Compound 15, 3-((dimethylamino)methyl)-N,N-dimethyl-4-(3-methyl-4-(methylthio)phenoxy)aniline], for which the half-inhibitory concentration (IC50) in series [1] (setting [3]) turned out to be 23 µM. This compound registered a CC50 in series [2] (CC50 (uM) [SG]) of 38.7 µM.

Regarding `CSc1ccc(Oc2ccc(CNS(C)(=O)=O)cc2CN(C)C)cc1C` [Compound 17, N-(3-((dimethylamino)methyl)-4-(3-methyl-4-(methylthio)phenoxy)benzyl)methanesulfonamide], in series [1] (setting [3]), the IC50 is 22.7 µM. Besides, in series [2] (CC50 (uM) [SG]), the CC50 is more than 50 µM.

As for `CNc1ccc(Oc2ccc(SC)c(C)c2)c(CN(C)C)c1` [Compound 25, 3-((dimethylamino)methyl)-N-methyl-4-(3-methyl-4-(methylthio)phenoxy)aniline], in series [1] (setting [3]), the half-maximal inhibitory concentration (IC50) was 20 µM. Besides, the CC50 in series [2] (CC50 (uM) [SG]) was determined as 46.9 µM.

On to `CNCc1ccccc1Oc1ccc(SC)c(C)c1` [Compound 30, N-methyl-1-(2-(3-methyl-4-(methylthio)phenoxy)phenyl)methanamine], for which the IC50 in series [1] (setting [3]) was 13.2 µM. Moreover, the Emax in series [1] (setting [4]) turned out to be 26%. Besides, in series [2] (CC50 (uM) [SG]), the CC50 amounted to 26.4 µM.

Regarding `CNCc1cc(Br)ccc1Oc1ccc(SC)c(C)c1` [Compound 31, (5-bromo-2-(3-methyl-4-(methylthio)phenoxy)phenyl)-N-methylmethanamine], the IC50 in series [1] (setting [3]) was 7.51 µM. Also, the Emax in series [1] (setting [4]) turned out to be 18%. This compound also came in with a CC50 in series [2] (CC50 (uM) [SG]) of 13.5 µM.

For the compound `CNCc1ccccc1Oc1ccc(Br)cc1` [Compound 32], the IC50 in series [1] (setting [3]) was 31.2 µM. In addition, the Emax in series [1] (setting [4]) was found to be 30%. Besides, in series [2] (CC50 (uM) [SG]), the CC50 is more than 50 µM.

Take `CNCc1ccccc1Oc1ccc(SC)cc1` [Compound 33, N-methyl(2-(4-(methylthio)phenoxy)phenyl)methanamine]: in series [1] (setting [3]), the IC50 turned out to be 30.2 µM. For the same compound, the Emax in series [1] (setting [4]) came out at 72.3%. Also, in series [2] (CC50 (uM) [SG]), the CC50 is more than 50 µM.

In the case of `CNCc1cc(Br)ccc1Oc1ccc(SC)cc1` [Compound 34, (5-bromo-2-(4-(methylthio)phenoxy)phenyl)-N-methylmethanamine], the IC50 in series [1] (setting [3]) was 24.6 µM. In addition, in series [1] (setting [4]), the Emax stood at 72.6%. The CC50 in series [2] (CC50 (uM) [SG]) was determined as 35.5 µM.

Regarding `CNCc1cc(Br)ccc1Oc1cccc(OC)c1` [Compound 37, (5-bromo-2-(3-methoxyphenoxy)phenyl)-N-methylmethanamine], the IC50 in series [1] (setting [3]) is 27.7 µM. In addition, the Emax in series [1] (setting [4]) was 12.4%. The same compound yielded a CC50 in series [2] (CC50 (uM) [SG]) of 46.9 µM.

In turn, `CNCc1ccccc1Oc1ccc(C(F)(F)F)cc1` [Compound 39, N-methyl-1-(2-(4-(trifluoromethyl)phenoxy)phenyl)methanamine] registered a 90% effect concentration (IC90) in series [1] (Huh-7) of 50 µM. In series [1] (setting [3]), the IC50 worked out at 37.5 µM. For the same compound, the Emax in series [1] (setting [4]) worked out at 91.7%. In addition, in series [2] (CC50 (uM) [SG]), the CC50 was more than 50 µM.

For the compound `CSc1ccc(Oc2ccc(Br)cc2CN(C)C)cc1` [Compound 41, 1-(5-bromo-2-(4-(methylthio)phenoxy)phenyl)-N,N-dimethylmethanamine], in series [1] (Huh-7), the IC90 was 28.8 µM. The IC50 in series [1] (setting [3]) was 25.8 µM. The Emax in series [1] (setting [4]) was found to be 94.7%. The same compound displayed a CC50 in series [2] (CC50 (uM) [SG]) of more than 50 µM.

On to `COc1ccc(Oc2ccc(Br)cc2CN(C)C)cc1` [Compound 42, (5-bromo-2-(4-methoxyphenoxy)phenyl)-N,N-dimethylmethanamine], for which the IC50 in series [1] (setting [3]) was 30.8 µM. Moreover, the Emax in series [1] (setting [4]) amounted to 51.7%. Moreover, the CC50 in series [2] (CC50 (uM) [SG]) was more than 50 µM.

For `CNCc1cc(S(N)(=O)=O)ccc1Oc1ccc(SC)cc1` [Compound 43, 3-((methylamino)methyl)-4-(4-(methylthio)phenoxy)benzenesulfonamide], in series [1] (setting [3]), the IC50 is 32.7 µM. The Emax in series [1] (setting [4]) stood at 73.7%. Besides, the CC50 in series [2] (CC50 (uM) [SG]) is more than 50 µM.

As to `CNC(=O)c1cc(S(N)(=O)=O)ccc1Oc1ccc(SC)c(C)c1` [Compound 45, N-methyl-2-(3-methyl-4-(methylthio)phenoxy)-5-sulfamoylbenzamide], the Emax in series [1] (setting [4]) came out at 10.3%. In addition, the CC50 in series [2] (CC50 (uM)) is more than 50 µM.

Take `CSc1ccc(Oc2ccc(S(N)(=O)=O)cc2CN(C)C)cc1` [Compound 46, 3-((dimethylamino)methyl)-4-(4-(methylthio)phenoxy)benzenesulfonamide]: the IC50 in series [1] (Huh-7) and in series [1] (setting [3]) was 26.3 µM each time. The IC90 in series [1] (Huh-7) was determined as 60.9 µM. The Emax in series [1] (Huh-7, read-out: Max Effect @CC30 (inhibition)) worked out at 83.2%; in series [1] (setting [4]), 83.2%. Besides, the CC50 in series [2] (CC50 (uM)) and in series [2] (CC50 (uM) [SG]) was more than 50 µM each time.

Take `CSc1ccc(Oc2ccc(S(N)(=O)=O)cc2CO)cc1C` [Compound 47, 3-(hydroxymethyl)-4-(3-methyl-4-(methylthio)phenoxy)benzenesulfonamide]: the IC50 in series [1] (Huh-7) and in series [1] (setting [3]) was 18.1 µM throughout. In addition, the Emax in series [1] (setting [4]) came to 63.5%. Moreover, the CC50 in series [2] (CC50 (uM)) and in series [2] (CC50 (uM) [SG]) was more than 50 µM throughout.

Regarding `CSc1ccc(Oc2ccc(S(=O)(=O)Nc3ccccc3)cc2CN(C)C)cc1C` [Compound 49, 3-((dimethylamino)methyl)-4-(3-methyl-4-(methylthio)phenoxy)-N-phenylbenzenesulfonamide], the IC50 in series [1] (setting [3]) worked out at 6.53 µM. Moreover, the Emax in series [1] (setting [4]) was 15.3%. Also, the CC50 in series [2] (CC50 (uM) [SG]) amounted to 10.8 µM.

In series [1] (Huh-7), `CNCc1cc([N+](=O)[O-])ccc1Oc1ccc(SC)c(C)c1` [Compound 50, N-methyl-1-(2-(3-methyl-4-(methylthio)phenoxy)-5-nitrophenyl)methanamine] displayed a 90% effect concentration (IC90) of 11.4 µM. Also, the concentration for half-maximal inhibition (IC50) in series [1] (setting [3]) worked out at 6.04 µM. Further, the Emax in series [1] (setting [4]) came out at 90%. The compound further showed a CC50 in series [2] (CC50 (uM) [SG]) of 26.1 µM.

As for `CSc1ccc(Oc2ccc(N)cc2CN(C)C)cc1C` [Compound 53, 3-((dimethylamino)methyl)-4-(3-methyl-4-(methylthio)phenoxy)aniline], the 90% effect concentration (IC90) in series [1] (Huh-7) worked out at 45.7 µM. The IC50 in series [1] (setting [3]) is 22.6 µM. The Emax in series [1] (setting [4]) came out at 91.5%. Also, the CC50 in series [2] (CC50 (uM) [SG]) was more than 50 µM.

In series [1] (Huh-7), `CSc1ccc(Oc2ccc([N+](=O)[O-])cc2CN(C)C)cc1C` [Compound 54, N,N-dimethyl-1-(2-(3-methyl-4-(methylthio)phenoxy)-5-nitrophenyl)methanamine] yielded a concentration for an effect of 90% (IC90) of 7.07 µM. For the same compound, the IC50 in series [1] (setting [3]) amounted to 6.18 µM. For the same compound, the Emax in series [1] (setting [4]) worked out at 97.9%. The CC50 in series [2] (CC50 (uM) [SG]) is more than 50 µM.
